Test results: patent US11879021B2, “Cyclic peptides and uses thereof” (UNIVERSITÉ DE MONTRÉAL, priority 2016, dated 2024)

Experiments:
[1] = system: R-FSL-1 (TLR2 agonist)-induced TNF-α and CCL-2 release in RAW macrophages; experiment: R-FSL-1-induced TNF-α and CCL-2 release in RAW macrophages; type: cell-based, murine; details: 10^−7 M
Procedure: The murine RAW1 macrophage cell line was obtained from American Type Cell Collection (ATCC #TIB-71). RAW cells were seeded at 150,000 cells per well in a 48-well plate (Costar® #3548) and weaned overnight in medium (DMEM supplemented 1% penicillin/streptomycin) at 37° C. with 5% CO2. The next day, the medium was changed to DMEM-1% penicillin/streptomycin supplemented with 0.2% BSA. The cells were first pretreated with 300 μL of azapeptides DBG178 (MPE-133, reference standard), 25 (MPE-210), 26 (MPE-266), 28 (MPE-268), 32 (MPE-267), 33 (MPE-298), 38 (MPE-308), 35 (MPE-300), 39 (MPE-310) and azaLys6-GHRP-6 (as negative control) at 10^-7M for 30 min. Then, […] of the TLR2 agonist, R-FSL-1 (300 ng/ml final concentration, R-FSL-1, Invivogen® #L7022) was added for 4 h period of incubation at 37° C. with 5% CO2. At the end of the incubation period, media were collected and stored at −80° C. for TNF-α and CCL-2 assays using ELISA kits (EbioScience® #88-7391 and #88-7324). Results were analyzed by analysis of variance (ANOVA) with post hoc comparisons using Dunnett's test with a statistical software package (Graph Pad Prism® version 7.0). P<0.05 was considered statistically significant.

[2] = system: R-FSL-1 (TLR2 agonist)-induced TNF-α and CCL-2 release in RAW macrophages; experiment: as above; type: cell-based, murine; details: 10^−7 M; remark: listed apart in the source
[3] = system: R-FSL-1 (TLR2 agonist)-induced NO production in RAW macrophage cell line; experiment: Nitric oxide (NO) production induced by TLR2 agonist R-FSL-1 in RAW macrophage cell line; type: cell-based, murine; details: RAW macrophages; for suppression of NO production compared with positive control MPE-001 at the same concentration / suppression of R-FSL-1-mediated NO production at 10^−7 M: 10^−7 M, FIG. 4F; for suppression of R-FSL-1-mediated NO production at 10^−7 M: further analyses; for R-FSL-1-mediated NO production, % of control: control = R-FSL-1 only, noticeable reduction without reaching significance (P<0.01)
Procedure: The murine RAW1 macrophage cell line was obtained from American Type Cell Collection (ATCC #TIB-71), seeded at 1.5×10^5 cells/well in Dulbecco's Modified Eagle's medium (DMEM) containing 100 U/mL of penicillin (Pen) and 100 μg/mL of streptomycin (Strep) on a 48-well plate (Costar® #3548), and incubated at 37° C. with 5% CO2. After 2 h, the cell culture medium of adhered cells was removed and replaced by DMEM-Pen/Strep medium containing 0.2% of bovine serum albumin (BSA), and supplemented with the cyclic peptides at a concentration of 10^−6 or 10^−7 M. MPE-001 (DBG178, His-D-Trp-Ala-AzaTyr-D-Phe-Lys-NH2) and [azaLys^6]-GHRP-6 (His-D-Trp-Ala-Trp-D-Phe-azaLys-NH2, negative control) at 10^−6 M were used as positive and negative controls, respectively. After 1 h pre-incubation, the cells were stimulated overnight using the TLR2 ligand fibroblast-stimulating lipopeptide (R-FSL-1) (Invivogen® #L7022) at a concentration of 300 ng/mL. Supernatants were then collected for nitrite production analysis by fluorescence using 2,3-diaminonaphthalene (DAN). Briefly, 25 μL of sample was incubated with 0.5 μg of DAN in a 100 μL final volume of phosphate buffer (50 mM, pH 7.5) at room temperature in the dark. After 15 min, the reaction was stopped with 20 μL of NaOH (2.8N) and the plate was read using a fluorescence plate reader (TECAN® Safire, λexc 365 nm and λem 430 nm).

CD36 = target: T1, CD36 (Rattus norvegicus, UniProt Q07969); experiment: Competition binding of photoactivatable [125I]-Tyr-Bpa-Ala-Hexarelin to CD36 in rat cardiac membranes; details: competition with [125I]-Tyr-Bpa-Ala-Hexarelin, rat heart membranes; for IC50: read-out: IC50 (μM), binding affinity for CD36
T1 construct: from tissue; host or cells: Heart (cardiac membranes) of Sprague Dawley rats from Charles River
Procedure: Hearts from Sprague Dawley rats (300-325 g) from Charles River were cut into small pieces and homogenized with a Polytron® at low speed, 3×15 sec in buffer A (10 mM NaHCO3, 5 mM NaN3, 10 μM Pefabloc®, 0.1 μM Aprotinin, 1 μM Pepstatin A, 1 μM Leupeptin, pH 7.0) at a concentration of […] of tissue. The homogenate was first centrifuged at 8,700×g for 20 min in a Sorvall® centrifuge and the supernatant was collected on ice. The pellet was resuspended and re-homogenized with a Glass-Teflon® Potter by 5 strokes. This homogenate was recentrifuged at 8,700×g for 10 min and the resulting supernatant was combined with the first collected supernatant. The combined supernatant was centrifuged at 35,000×g for 20 min. The pellet fraction obtained was resuspended in Buffer B (20 mM Tris-maleate, 0.6M KCl, pH 6.8) in a volume corresponding to 20 mL/g of fresh tissue using a glass homogenizer with a Teflon pestle. The resulting suspension was centrifuged again at 35,000×g for 60 min. and the pellet fraction obtained was resuspended in Buffer C (10 mM Tris/HCl buffer pH 7.4) and thoroughly homogenized in a glass with a Teflon® pestle (20 ml/g of fresh tissue). This suspension was submitted to another centrifugation at 35,000×g for 60 min. The collected pellet was resuspended in 50 mM Tris/HCl buffer pH 7.4) containing 2 mM EGTA in a final volume corresponding to 1-2 mL/g of fresh tissue. The membrane preparation obtained was frozen at −80° C. Protein concentration was determined using the bicinchoninic acid (BCA) method, employing BSA as standard.
The reaction was started by adding 3 nmol of H2O2 for 5 min at room temperature. This step was repeated twice with a period of 5 min of incubation for each addition. The reaction was stopped by diluting the mixture with 1 mL of 0.1% TFA. The radioiodinated peptide was purified by HPLC on a reverse-phase Vydac® C18 column with a 60-min linear gradient from 20% to 50% of acetonitrile in 0.1% TFA. The eluted radiolabelled tracer was collected, aliquoted (50×10^6 cpm/fraction) and stored at −80° C.
Binding studies with MPE-298 were done with increasing concentrations from 0.01 to 5 μM of competition ligands. Nonspecific binding was defined as binding not displaced by 50 μM corresponding peptide. All peptide containing solutions were diluted in Buffer B. Buffer A and B were degassed under vacuum, and used in capped tubes in order to minimize lipid peroxidation. Before the incubation period, all tubes were put under a low flow of nitrogen. All material was kept on ice and the binding assay was performed in darkness. After an incubation period of 60 min at 22° C. (vortexing every 15 min), membranes were submitted to irradiation with UV lamps (365 nm) for 15 min at 4° C. After centrifugation at 12,000×g for 15 minutes, the pellets were resuspended in 40 μl of sample buffer (62 mM Tris-HCl, pH 6.8, 2% SDS, 10% glycerol, 15% 2-mercaptoethanol, and 0.05% bromophenol blue), and boiled for 5 min prior to being subjected to electrophoresis. Proteins (50 μg/40 μl) were separated on a 7.5% SDS-PAGE Bio-Rad® Mini-Protean electrophoresis system (150 V for 1 h). The gels resulting from SDS/PAGE were fixed, colored in Coomassie Brilliant Blue R-250, dried, exposed to a storage phosphor intensifying screen (Amersham Biosciences), and analysed using a Typhoon® PhosphorImager (GE Healthcare Life Sciences®). […] The curves were analysed by using software package (Graphpad® prism version 7.0).

apoE−/− mice = experiment: Murine atherosclerosis model (apoE−/− mice on atherogenic diet), aortic lesions; type: in vivo; details: 300 nmol/kg daily s.c. for 8 weeks
Procedure: Experiments were performed in male apoE−/− mice fed an atherogenic diet (D12108, cholate-free AIN-76A semi-purified diet, Research Diets Inc., New Brunswick, NJ) from 4 weeks of age. MPE-298 (300 nmol/kg), MPE-267 (300 nmol/kg) or vehicle (0.9% NaCl), were administered by daily by subcutaneous (s.c.) injections for 8 weeks, from 12 weeks of age, as shown schematically in FIG. 8A.

T1 sequence (Q07969 whole entry): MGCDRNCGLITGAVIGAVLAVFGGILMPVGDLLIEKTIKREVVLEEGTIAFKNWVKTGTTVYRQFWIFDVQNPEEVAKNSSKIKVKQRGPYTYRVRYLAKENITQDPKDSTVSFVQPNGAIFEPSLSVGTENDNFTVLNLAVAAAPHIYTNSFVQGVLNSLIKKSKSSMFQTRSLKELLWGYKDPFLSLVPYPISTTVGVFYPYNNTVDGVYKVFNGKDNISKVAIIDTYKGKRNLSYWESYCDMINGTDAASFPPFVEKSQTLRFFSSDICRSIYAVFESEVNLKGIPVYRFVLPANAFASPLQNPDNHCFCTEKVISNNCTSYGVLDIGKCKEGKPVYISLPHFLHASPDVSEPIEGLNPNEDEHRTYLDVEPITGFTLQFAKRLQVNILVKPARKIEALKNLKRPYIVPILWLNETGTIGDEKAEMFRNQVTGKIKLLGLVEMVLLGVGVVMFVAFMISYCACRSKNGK

Compound | effect on R-FSL-1-induced CCL-2 release [1] | effect on R-FSL-1-induced TNF-α release [1] | inhibitory effect on R-FSL-1-induced CCL-2 release compared with reference standard DBG178 (MPE-001) [2] | suppression of NO production compared with positive control MPE-001 at the same concentration [3] | suppression of R-FSL-1-mediated NO production at 10^−7 M [3] | R-FSL-1-mediated NO production, % of control [3] | IC50 (CD36) | binding to CD36 (in words) (CD36) | reduction of aortic lesions relative to 0.9% NaCl (vehicle) (apoE−/− mice) | suppression of R-FSL-1-mediated NO production ([3]; at the concentration tested (10^−6 or 10^−7 M), FIGS. 4A to 4F)
C=CCN1CC#CCN(NC(C)=O)C(=O)N[C@H](Cc2c[nH]c3ccccc23)C(=O)N[C@@H](C)C(=O)N[C@@H](Cc2c[nH]c3ccccc23)C(=O)N[C@H](Cc2ccccc2)C(=O)N[C@H](C(N)=O)CCCC1 [MPE-310] | significant inhibitory effect | significant inhibitory effect | significantly higher | more important | significant suppression | about 80 % of control | 0.89 µM |  |  | 
C=CCN1CC#CCN(N)C(=O)N[C@H](Cc2c[nH]c3ccccc23)C(=O)N[C@@H](C)C(=O)N[C@@H](Cc2c[nH]c3ccccc23)C(=O)N[C@H](Cc2ccccc2)C(=O)N[C@H](C(N)=O)CCCC1 [MPE-268] | no significant effect | no significant effect |  | more important | significant suppression | about 80 % of control |  | no significant binding affinity |  | 
C=CCN1CC#CCN(NC(=O)[C@H](C)N)C(=O)N[C@@H](C)C(=O)N[C@@H](Cc2c[nH]c3ccccc23)C(=O)N[C@H](Cc2ccccc2)C(=O)N[C@H](C(N)=O)CCCC1 [MPE-267] | significant inhibitory effect | significant inhibitory effect |  |  |  |  | 0.24 µM |  | 28% | significant suppression
